Test results taken from PMC4544630, “Contribution of C-glucosidic ellagitannins to Lythrum salicaria L. influence on pro-inflammatory functions of human neutrophils” (Journal of Natural Medicines, 2014).

How the values were obtained:
ROS [1] = experiment: ROS release from f-MLP-stimulated neutrophils, luminol chemiluminescence; format: cell-based, human; conditions: % of stimulated control
Text: (§1) Peripheral venous blood was taken from healthy human donors (20–35 years old) in the Warsaw Blood Donation Centre. […] The study conformed to the principles of the Declaration of Helsinki. Neutrophils were isolated using a standard method of dextran sedimentation prior to hypotonic lysis of erythrocytes and to centrifugation in a Ficoll Hypaque gradient. The purity of neutrophil preparations was >97 %, and viability measured by trypan blue exclusion was >98 %. Neutrophils were then resuspended in appropriate medium to perform the selected assay.
(§2) Generation of oxidants by f-MLP or PMA-stimulated neutrophils was measured using luminol- or lucigenin-dependent chemiluminescence tests. 70 μL of cell suspension (2 × 10^5/mL) in HBSS was incubated with 50 μL of compound or extract solution (final concentrations of 1, 5 and 20 μM or μg/mL) together with 50 μL of luminol (100 μM) or lucigenin (200 μM) solution. ROS production was initiated by the addition of 30 μL of f-MLP (0.1 μg/mL) or PMA (1 μg/mL). Changes in chemiluminescence at 37 °C were measured immediately for 45 min at intervals of 2 min in a microplate reader (Biotek). Ascorbic acid was used as a positive control.

MPO = MPO release from cytochalasin A/f-MLP-stimulated neutrophils (TMB substrate); format: cell-based, human; conditions: for MPO release Mean(%): cytochalasin A/f-MLP, % of stimulated control
Text: Peripheral venous blood was taken from healthy human donors (20-35 years old) in the Warsaw Blood Donation Centre. […] The study conformed to the principles of the Declaration of Helsinki. Neutrophils were isolated using a standard method of dextran sedimentation prior to hypotonic lysis of erythrocytes and to centrifugation in a Ficoll Hypaque gradient. The purity of neutrophil preparations was >97 %, and viability measured by trypan blue exclusion was >98 %. Neutrophils were then resuspended in appropriate medium to perform the selected assay. Neutrophil MPO release was determined using TMB as a substrate. […] After centrifugation (2000 rpm; 10 min; 4 °C), 100 μL of supernatant was incubated with 50 μL of the TMB liquid substrate system. The reaction was terminated after 20 min by the addition of 2 M hydrochloric acid. The absorbance was measured at […] using a microplate reader (BioTek). Gallic acid was used as a positive control, according to Kroes et al..

ROS [2] = experiment: ROS release from PMA-stimulated neutrophils, lucigenin chemiluminescence; format: cell-based, human; conditions: PMA + lucygenin, % of stimulated control
Text: as §1, §2

[3] = biological target: T1, bovine testis hyaluronidase (Bos taurus, UniProt Q2YDK3); experiment: Hyaluronidase activity, USP turbidimetric method modified; format: biochemical; conditions: for Hyaluronidase activity Mean(%): % of 100% active enzyme control
T1 construct: purchased Sigma–Aldrich GmbH (Steinheim, Germany); host or cells: bovine testis
T1 sequence (Q2YDK3 36-553): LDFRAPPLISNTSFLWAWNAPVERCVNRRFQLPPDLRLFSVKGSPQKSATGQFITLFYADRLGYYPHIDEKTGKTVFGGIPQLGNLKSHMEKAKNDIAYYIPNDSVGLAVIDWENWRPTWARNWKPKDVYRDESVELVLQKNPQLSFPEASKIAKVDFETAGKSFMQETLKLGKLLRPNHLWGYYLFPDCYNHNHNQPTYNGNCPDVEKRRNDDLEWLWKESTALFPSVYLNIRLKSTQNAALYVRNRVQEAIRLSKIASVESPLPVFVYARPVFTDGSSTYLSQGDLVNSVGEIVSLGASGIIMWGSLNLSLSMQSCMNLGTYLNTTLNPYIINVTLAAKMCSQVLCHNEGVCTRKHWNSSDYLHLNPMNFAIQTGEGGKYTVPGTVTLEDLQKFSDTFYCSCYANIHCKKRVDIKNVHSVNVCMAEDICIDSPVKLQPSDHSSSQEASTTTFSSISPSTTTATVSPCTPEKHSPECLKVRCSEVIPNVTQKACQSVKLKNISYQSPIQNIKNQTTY
Text: The […] flowering herb was collected from its natural habitat in Umer in the Świętokrzyskie region (Poland) in July 2011. Its identity was confirmed anatomically and morphologically based on its pharmacopoeial monograph in the Department of Pharmacognosy and Molecular Basis of Phytotherapy, Medical University of Warsaw, where the voucher specimen UMER2011 is deposited. […] […]), castalagin ([…] (SB) and […]. 1, 2) from […] performed according to Piwowarski and Kiss. […] Isolated ellagitannins were of >95 % purity (determined by the HPLC-DAD-CAD method). […] Gallic acid (>96 % purity) was purchased from ChromaDex (Santa Ana, USA). Propidium iodide was purchased from BD Biosciences (San Diego, CA, USA). All substances used were of >95 % purity. Phosphate-buffered saline (PBS) was purchased from Gibco (Carlsbad, CA, USA). The influence of extract and ellagitannins on hyaluronidase activity was measured using the USP turbidimetric method modified by Piwowarski et al. […] Heparin was used as a positive control.

elastase = experiment: Elastase release from cytochalasin A/f-MLP-stimulated neutrophils (SAAVNA substrate); format: cell-based, human; conditions: for Elastase release Mean(%): % of stimulated control
Text: as §1
Neutrophil elastase release was determined using SAAVNA as a substrate, and […] was measured spectrophotometrically. 100 μL of cell suspension (5 × 10^5/mL) in HBSS was preincubated with 50 μL of compound or extract solution (final concentrations of 1, 5 and 20 μM or μg/mL) for 15 min at 37 °C and then stimulated with 50 μL of cytochalasin A (5 μg/mL) and f-MLP (0.1 μg/mL) for 15 min. The neutrophils were centrifuged (2000 rpm; 10 min; 4 °C). After the addition of 50 μL of SAAVNA solution (1.6 mg/mL) to 100 μL of supernatant, the extent of […] was measured spectrophotometrically for 1 h at intervals of 20 min, at 412 nm using a microplate reader (BioTek). According to Kanashiro et al., quercetin was used as a positive control.

MMP-9 = MMP-9 production by LPS-stimulated neutrophils (ELISA); format: cell-based, human; conditions: LPS 100 ng/mL, 24 h, % of stimulated control
Text: as §1
(§3) Neutrophils (2 × 10^5/mL) were cultured in 24-well plates in RPMI 1640 medium with 10 % FBS, 10 mM HEPES, and 2 mM L-glutamine in the absence or presence of LPS (100 ng/mL) for 24 h at 37 °C with 5 % CO2 in the absence or presence of extract at concentrations of 1, 5 and 20 μg/mL, and compounds at concentrations of 1, 5 and 20 μM were added to 1 mL of cell suspension 1 h before the stimuli. After 24 h, the neutrophils were harvested and centrifuged (2000 RPM; 10 min; 4 °C). The amount of IL-8 or MMP-9 released into cell supernatants was measured by enzyme-linked immunosorbent assay (ELISA) following the manufacturer’s instructions (R&D Systems, Minneapolis, MN, USA). PBS was used as a non-stimulated control. Curcumin was used as a positive control, according to Aggarwal and Harikumar and Antoine et al..

IL-8 = IL-8 production by LPS-stimulated neutrophils (ELISA); format: cell-based, human; conditions: LPS 100 ng/mL, 24 h, % of stimulated control
Text: as §1, §3

SMILES	ROS release Mean(%) (ROS [1]; 1 μM)	ROS release Mean(%) (ROS [1]; 5 μM)	ROS release Mean(%) (ROS [1]; 20 μM)	MPO release Mean(%) (MPO; 1 μM)	MPO release Mean(%) (MPO; 5 μM)	MPO release Mean(%) (MPO; 20 μM)	ROS release Mean(%) (ROS [2]; 1 μM)	ROS release Mean(%) (ROS [2]; 5 μM)	ROS release Mean(%) (ROS [2]; 20 μM)	IC50 [3]	Hyaluronidase activity Mean(%) ([3]; 1 μM)	Hyaluronidase activity Mean(%) ([3]; 2 μM)	Hyaluronidase activity Mean(%) ([3]; 5 μM)	Hyaluronidase activity Mean(%) ([3]; 20 μM)	Elastase release Mean(%) (elastase; 1 μM)	Elastase release Mean(%) (elastase; 5 μM)	Elastase release Mean(%) (elastase; 20 μM)	MMP-9 production Mean (%) (MMP-9; 1 μM)	MMP-9 production Mean (%) (MMP-9; 5 μM)	MMP-9 production Mean (%) (MMP-9; 20 μM)	also measured
O=C(OC1COC(=O)c2cc(O)c(O)c(O)c2-c2c(cc(O)c(O)c2O)C(=O)OC1C1OC(=O)c2cc(O)c(O)c(O)c2-c2c(O)c(O)c(O)c3c2C(=O)OC1C3O)c1cc(O)c(O)c(O)c1Oc1cc2c(c(O)c1O)-c1c(cc(O)c(O)c1O)C(=O)OCC1OC(=O)c3cc(O)c(O)c(O)c3-c3c(O)c(O)c(O)c4c3C(=O)OC(C1OC2=O)C1OC(=O)c2c-4c(O)c(O)c(O)c2C1O (stereo not drawn) [SC, salicarinin C]	63,16%	34,71%	18,92%	66,67%	52,85%	5,95%	66,62%	34,56%	7,37%	2500 ± 200 nM	81,82%	57,68%	8,00%	0,50%	85,10%	80,91%	50,60%	97,74%	92,17%	86,61%	IL-8 production Mean (%) (IL-8; 1 μM): 77,70%; IL-8 production Mean (%) (IL-8; 5 μM): 78,29%; IL-8 production Mean (%) (IL-8; 20 μM): 56,68%
O=C1OCC2OC(=O)c3cc(O)c(O)c(O)c3-c3c(O)c(O)c(O)c4c3C(=O)OC(C2OC(=O)c2cc(O)c(O)c(O)c2-c2c1cc(O)c(O)c2O)C1OC(=O)c2c-4c(O)c(O)c(O)c2C1O (stereo not drawn) [V, vescalagin]	63,47%	46,61%	30,13%	81,67%	65,70%	41,17%	66,84%	50,90%	28,93%	3100 ± 200 nM	88,10%	68,10%	18,39%	5,10%	102,25%	104,61%	102,89%	85,96%	99,57%	89,91%	activity on MPO release (MPO; all tested concentrations (1, 5, 20 μM)): expressed inhibitory activity at all tested concentrations; activity on elastase release (elastase; tested concentrations (1, 5, 20 μM)): completely inactive; IL-8 production Mean (%) (IL-8; 1 μM): 98,64%; IL-8 production Mean (%) (IL-8; 5 μM): 80,63%; IL-8 production Mean (%) (IL-8; 20 μM): 71,68%
